# Laboratory results published in US20100286217A1, “STABLE, LOW VOC, LOW VISCOUS BIOCIDAL FORMULATIONS AND METHOD OF MAKING SUCH FORMULATIONS” (priority 2008, published 2010).
# Experiment: Dissolution of IPBC in MPEG-350/DMSO versus PEG-400/DMSO
# Assay type: physicochemical
# Settings: 60% IPBC solution
# Description: In a 100 ml beaker is added about 25 ml of solvent, and the weight is recorded to four significant digits. The beaker is heated to 40-60° C. (depending on the active being tested) in a water bath. The solute of interest is added stepwise (all aliquot weights are recorded to four significant digits) until saturation is achieved. Once the solid remains undissolved, back-titration with known weights of solvent are performed until the solution is clear.
# This example compares the viscosity and VOC content of 55 and 60% IPBC formulations in MPEG-350/DMSO and PEG-400/DMSO. For the 55% IPBC solutions, 10% DMSO is used. For the 60% solutions, only 10% DMSO is required for complete dissolution of the IPBC when MPEG is used, however, 15% DMSO is required for complete dissolution of the IPBC when PEG 400 is used. Viscosity and VOC data are in Table 6.
smiles,measurement,setting,value
"CCCCNC(=O)OCC#CI [IPBC, 3-iodo-2-propynyl butyl carbamate]",DMSO required for complete dissolution of the IPBC,MPEG used,10%
same,DMSO required for complete dissolution of the IPBC,PEG 400 used,15%
